Data on 2 molecules can be found in PMC5369982, “Near infrared fluorescent imaging of choline kinase alpha expression and inhibition in breast tumors” (Oncotarget, 2017).

The test system of test [1] is MDA-MB-231 tumors. Nature of the test: Pharmacodynamic indicators of ChoKα inhibition (MRI/MRS). Type of test: in vivo, mouse. Particulars: 5 days i.p., MN58b 2 mg/kg, JAS239 4 mg/kg; for Change in tumor tCho compared to control (MRS) / Tumor volume between pre- and post-treatment scans (MRI): day 7; for PUFA resonances (measure of tumor apoptosis): trend not significant. The method, then:
Mice bearing subcutaneous 4175-Luc+ or MB-MDA-231 tumors (∼300 μL) underwent pre-treatment MRS scans in a 9.4 T horizontal bore magnet equipped with 40 G/cm gradients interfaced to an Agilent Direct-Drive console (Agilent) operating vnmrj 2.3.C software. Multi-slice gradient and spin echo images were used for tumor localization. T2-weighted spin echo anatomical images were acquired using a spin echo multi-slice (SEMS) pulse sequence (TR = 1000 ms, TE = 10 ms, number of slices = 20, field of view = 20 × 20 mm^2, slice thickness = 1 mm, NT = 1, matrix size = 256 × 128) and used for voxel selection. A single voxel ^1H PRESS spectrum was acquired in a 3×3x3 mm^3 voxel (TR = 3000 ms, TE1 = 12.68 ms and TE2 = 10.01 ms, number of averages = 128, complex points = 4096, spectral width = 4000 Hz and acquisition time of 6 min 24 sec). Water suppression was achieved using the VAPOR sequence. An unsuppressed water spectrum was acquired (8 averages) as a chemical shift and concentration reference. One week following initiation of treatment, ^1H MR spectra were acquired again. Spectra were processed using Mnova Lite 5.2.5 software (Mestrelab Research). Free induction decays were processed by 10 Hz apodization followed by Fourier transformation. Spectra were phased and chemical shift and baseline correction performed prior to fitting of the water (4.7 ppm), tCho (3.2 ppm), PUFA (2.8 ppm), and lipid (1.3 ppm) resonances. The metabolite/water ratio was determined and the percent change was determined as [post-treatment ratio – pre-treatment ratio] *100%/pre-treatment ratio.
(§1) A cohort of 15 mice was inoculated with MDA-MB-231 cells. When a volume of 300 μL was reached, tumors were scanned using MRS. Tumor volumes were measured using T2-weighted images. The animals were separated into treatment groups, and for 5 consecutive days each group was injected i.p. with 100 μL of DMSO/saline vehicle (n = 5), 2 mg/kg MN58b (n = 4), or 4 mg/kg JAS239 (n = 3). Initial cohort sizes were 5 per condition, but some animals had to be removed from the study because the treatment was so effective that we were unable to place voxels within post-treatment tumors that were too small. Follow-up MRI/MRS scanning was performed on day 7 to assess tumor growth inhibition and changes in metabolite levels. After imaging, blood was collected into heparin-coated tubes by cardiac puncture. Resected tumors were embedded in Optimum Cryo-Temperature (Sakura Finetek), flash-frozen in liquid nitrogen, and stored at –80 °C. Blood samples were submitted to the Ryan Veterinary Clinic Diagnostic labs for toxicology.

The next test deals with MDA-MB-231 cells. Nature of the test: Cell viability, MTT assay. The format is cell-based, human. Particulars: 17 h, ± SEM, 3 experiments. As to the method: (§2) MCF7 cells were plated for Trypan exclusion assays at 1.0 × 10^6 cells/well in 6-well plates and treated with MN58b or JAS239, synthesized in house. At 17 h, cells were collected by trypsinization, stained with Trypan Blue, and counted using a Neubauer hemocytometer. For 3-(4,5-Dimethylthiazol-2-yl)-2,5-diphenyltetrazolium bromide (MTT) assays, cells in 96-well plates (7.5 × 10^4 cells/well) were treated with JAS239 or MN58b overnight, and stained with 20 μL of 5 mg/mL MTT (Sigma-Aldrich) for 2 h, lysed with DMSO and scanned for absorbance using a SpectraMax M5 plate reader (Molecular Devices) at 550 nm, subtracting background absorbance at 690 nm from each sample.
(§3) Supplementary Figure 2: Breast cancer cell viability in response to ChoK inhibitors. (A–D) Cell viability measurements via […]
(§4) (A) or JAS239 (B). MTT assays were performed on MDA-MB-231 and 4175-Luc+ (C, D) cells exposed to MN58b (C) or JAS239 (D).
(§5) Values are reported relative to untreated control groups and represent ± SEM for 3 separate experiments. At higher JAS239 concentrations, the MTT assay was used as JAS239 interfered with Trypan blue counting. There was no overlap in absorbance readings between the MTT formazan product and JAS239.
(§6) (1 picture or pasted object on this page, not shown here)
A general note: Formazan colour is commonly taken as a measure of viable cells.

The next test concerns 4175-Luc+ cells. Nature of the test: Cell viability, MTT assay. The format is cell-based, human. Particulars: 17 h, ± SEM, 3 experiments. The method, then:
as §2, §3, §4, §5, §6

The next test has as its target ChoKα (Homo sapiens, UniProt P35790). Put plainly: ChoKα activity assay (14C-choline phosphorylation to 14C-PC in cells). Particulars: analyzed after 2 h, ± SEM, 3 experiments, read-out: IC50 (14C-PC production). The arrangement: endogenous in cells; host or cells: MCF7-EV, MCF7-CK+ (stably overexpressing ChoK), MDA-MB-231, 4175-Luc+. The format is cell-based. As to the method:
Cells in 6-well plates (1.0 × 10^6 cells/well) were incubated for 24 h then treated with JAS239 or MN58b. After 1 h, cells were spiked for 1 h with 0.5 μCi/mL [methyl-^14C]-choline (PerkinElmer) and fixed with trichloroacetic acid. Aqueous cellular extracts were separated by thin layer chromatography (TLC) and the ^14C-PC production measured by autoradiography on a Fujifilm FLA-7000 using previously described methods. […]
Supplementary Figure 1: Characterization of ChoKα in a panel of human breast cancer cell lines. (A) Determination of
ChoKα expression by Western blot confirms elevated ChoKα protein found in MCF7-CK+ cells. (B) Conversion of 14C-choline to 14C-PC
follows the pattern expected from ChoKα expression levels in (A). (C–F) Dose-response curves comparing the effect of MN58b ( C, D) or
JAS239 (E, F) on 14C-choline phosphorylation in MCF7-EV and MCF7-CK+ cells (C, E) or MDA-MB-231 and 4175-Luc+ cells (D, F).
Values are reported as a percentage of the untreated EV group (for MCF7 cells) or untreated MDA-MB-231 group (for MDA-MB-231 and
4175-Luc+), and represent ± SEM for 3 separate experiments.

Test [2] concerns MDA-MB-231 tumors. Nature of the test: Histopathology of treated tumors (H&E, Ki67, caspase-3). The format is in vivo, mouse. Particulars: 5 days i.p.; MN58b 2 mg/kg, JAS239 4 mg/kg; vs control. The method, then:
as §1
Hematoxylin and eosin staining and immunohistochemistry was performed as described previously. Caspase-3 (R&D Systems AF835) and Ki67 (Abcam ab16667) antibody staining was performed on a Bond Max automated staining system (Leica Microsystems) using the Bond Intense R staining kit (Leica Microsystems DS9263). An Aperio Scan Scope OS (Aperio Technology) was used to scan slides, and the Image Scope nuclear staining algorithm (version 9; Aperio Technology) was used to quantify Ki67 and caspase-3 positive nuclei in representative regions of each slide.

Read-outs that look alike come from different tables or passages of the source.

Chain of ChoKα (P35790 whole entry): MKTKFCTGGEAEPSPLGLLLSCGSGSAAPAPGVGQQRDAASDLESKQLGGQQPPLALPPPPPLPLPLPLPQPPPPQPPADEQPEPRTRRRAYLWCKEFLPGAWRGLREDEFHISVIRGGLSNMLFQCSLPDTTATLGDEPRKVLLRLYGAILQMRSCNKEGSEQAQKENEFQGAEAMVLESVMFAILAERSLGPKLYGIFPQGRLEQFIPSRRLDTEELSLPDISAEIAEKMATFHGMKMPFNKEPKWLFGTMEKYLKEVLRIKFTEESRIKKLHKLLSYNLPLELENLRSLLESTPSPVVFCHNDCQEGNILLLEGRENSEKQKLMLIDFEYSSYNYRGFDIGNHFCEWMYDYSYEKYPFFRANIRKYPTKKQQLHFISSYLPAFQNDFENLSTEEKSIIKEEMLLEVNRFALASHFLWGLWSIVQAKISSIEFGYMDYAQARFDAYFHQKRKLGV

As for `CC1(C)C(=C/C=C/C=C/C=C/C2=[N+](CCO)c3ccccc3C2(C)C)N(CCO)c2ccccc21` [JAS239], the “Change in tumor tCho compared to control (MRS)” value in the test on MDA-MB-231 tumors [1] is “reduce tCho to noise levels”. Also, in the test with MDA-MB-231 tumors [1], the “Tumor volume between pre- and post-treatment scans (MRI)” value is listed as “static”. Besides, the “PUFA resonances (measure of tumor apoptosis)” value with MDA-MB-231 tumors [1] was “increased”. Besides, the EC50 came to 27.2 ± 7.9 µM in the test with MDA-MB-231 cells and 35 ± 21.6 µM in the test with 4175-Luc+ cells. Besides, the IC50 on ChoKα (4175-Luc+ cells) stood at 9.89 ± 0.24 µM; at ChoKα (MCF7-CK+ cells), 10.3 ± 2.48 µM; on ChoKα (MCF7-EV cells) it was 11.1 ± 5.64 µM; at ChoKα (MDA-MB-231 cells), 9.92 ± 0.22 µM. In the test on MDA-MB-231 tumors [2], the Caspase-3 levels entry was “higher caspase-3 levels”. In the test with MDA-MB-231 tumors [2], the “Cell density (H&E)” value is on record as “significant reduction in cell density”. In addition, the “Percentage of Ki67-positive cells” value in the test with MDA-MB-231 tumors [2] is on record as “significantly reduced”.

As for MN58b [reference compound], in the test on MDA-MB-231 tumors [1], the “Change in tumor tCho compared to control (MRS)” value was “Significant reductions in tCho”; the “Tumor volume between pre- and post-treatment scans (MRI)” value is recorded as “static”; the “PUFA resonances (measure of tumor apoptosis)” value is “increased”. For the same molecule, in the test on MDA-MB-231 cells, the response was half-maximal at 14.3 ± 4.6 µM (EC50). In the test with 4175-Luc+ cells, this molecule gave an EC50 of 20.7 ± 6.4 µM. The IC50 at ChoKα (4175-Luc+ cells) is 4.59 ± 0.55 µM. For the same molecule, the IC50 on ChoKα (MCF7-CK+ cells) turned out to be 2.36 ± 0.28 µM. In addition, the IC50 at ChoKα (MCF7-EV cells) is 3.85 ± 0.42 µM. The IC50 on ChoKα (MDA-MB-231 cells) worked out at 4.36 ± 1.37 µM. In addition, in the test on MDA-MB-231 tumors [2], the Caspase-3 levels entry is on record as “higher caspase-3 levels”, the “Cell density (H&E)” value is on record as “significant reduction in cell density” and the “Percentage of Ki67-positive cells” value is recorded as “significantly reduced”.

For orientation: EC50 means the concentration giving half of the maximal effect. High values mean a less potent agent, low ones a more potent agent. As usually defined, the IC50 is the midpoint of a concentration-inhibition curve.
